This experiment addresses T1, EGFR (L858R & T790M) (Homo sapiens, UniProt P00533, L858R/T790M).
T1 construct: GST; purchased Proqinase
The experiment can be described thus: EGFR (L858R & T790M) inhibition assay, HTRF method. As to conditions: biochemical HTRF; EGFR (T790M/L858R) 2.5 nM, ATP 5 μM, 60 min room temperature. In a few lines: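 GST-EGFR T790M/L858R (2.5 nM) phosphorylating biotinylated gastrin precursor peptide (0.5 μM) with 5 μM ATP in HEPES pH 7.4/Mg/Mn buffer, 60 min room temperature; compounds from 10 μM top. HTRF read-out (Eu anti-pTyr, SA-APC), 665/620 nm; IC50 from % inhibition.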
In general terms: In TR-FRET formats the signal depends on donor and acceptor labels being close together.

Results on 33 compounds are retold here after patent publication US10273224B2, “Substituted pyrimidine compounds, compositions and medicinal applications thereof” (JUBILANT BIOSYS LIMITED, priority 2013, dated 2019).

T1 sequence (P00533 25-1210 T790M/L858R): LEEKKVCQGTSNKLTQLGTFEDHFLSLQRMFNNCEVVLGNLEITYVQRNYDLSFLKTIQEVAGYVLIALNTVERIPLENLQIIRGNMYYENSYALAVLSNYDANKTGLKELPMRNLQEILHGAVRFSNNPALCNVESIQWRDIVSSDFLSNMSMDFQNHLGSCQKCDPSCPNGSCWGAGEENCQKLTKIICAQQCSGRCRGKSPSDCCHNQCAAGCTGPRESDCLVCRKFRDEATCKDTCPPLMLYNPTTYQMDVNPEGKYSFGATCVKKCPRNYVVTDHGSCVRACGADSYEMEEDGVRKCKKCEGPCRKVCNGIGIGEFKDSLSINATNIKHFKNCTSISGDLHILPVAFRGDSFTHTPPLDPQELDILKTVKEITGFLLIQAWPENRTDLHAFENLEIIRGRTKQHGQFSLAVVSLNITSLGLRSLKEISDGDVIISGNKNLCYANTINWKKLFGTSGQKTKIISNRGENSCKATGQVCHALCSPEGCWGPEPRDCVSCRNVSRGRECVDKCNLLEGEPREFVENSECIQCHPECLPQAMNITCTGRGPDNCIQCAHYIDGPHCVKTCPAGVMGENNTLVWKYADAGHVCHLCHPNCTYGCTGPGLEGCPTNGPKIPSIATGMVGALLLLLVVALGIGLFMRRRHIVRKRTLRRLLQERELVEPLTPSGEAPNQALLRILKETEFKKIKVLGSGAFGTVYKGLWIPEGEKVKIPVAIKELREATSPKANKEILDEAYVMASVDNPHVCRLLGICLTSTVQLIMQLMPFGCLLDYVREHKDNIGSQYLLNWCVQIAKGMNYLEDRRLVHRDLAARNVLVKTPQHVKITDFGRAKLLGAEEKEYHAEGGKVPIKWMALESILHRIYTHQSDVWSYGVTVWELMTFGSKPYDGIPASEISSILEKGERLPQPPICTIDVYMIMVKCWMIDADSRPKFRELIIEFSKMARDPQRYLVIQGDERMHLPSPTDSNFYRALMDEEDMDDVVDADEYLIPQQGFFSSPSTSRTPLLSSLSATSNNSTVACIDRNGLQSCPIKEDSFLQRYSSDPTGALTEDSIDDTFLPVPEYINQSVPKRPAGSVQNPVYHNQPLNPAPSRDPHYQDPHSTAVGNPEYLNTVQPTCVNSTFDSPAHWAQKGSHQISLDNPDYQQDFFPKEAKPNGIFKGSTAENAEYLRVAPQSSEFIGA

One may read the IC50 as the midpoint of a concentration-inhibition curve. As to `C=CC(=O)Nc1cc(Nc2nc(Nc3cnn(C)c3)ncc2Cl)ccc1F` [Compound I-66, N-(5-((5-chloro-2-((1-methyl-1H-pyrazol-4-yl)amino)pyrimidin-4-yl)amino)-2-fluorophenyl)acrylamide], the IC50 fell in the range of 10 to 100 nM.

Take `C=CC(=O)Nc1cc(Nc2nc(Nc3cnn(C4CCN(C)CC4)c3)ncc2Cl)ccc1F` [Compound I-67, N-(5-((5-chloro-2-((1-(1-methylpiperidin-4-yl)-1H-pyrazol-4-yl)amino)pyrimidin-4-yl)amino)-2-fluorophenyl)acrylamide]: the IC50 was 10 to 100 nM.

For `C=CC(=O)Nc1cc(Nc2nc(Nc3cnn(C)c3)ncc2Cl)c(F)cc1F` [Compound I-68, N-(5-((5-chloro-2-((1-methyl-1H-pyrazol-4-yl)amino)pyrimidin-4-yl)amino)-2,4-difluorophenyl)acrylamide], the IC50 is 10 to 100 nM.

As for `C=CC(=O)Nc1cc(Nc2nc(Nc3cnn(C4CCN(C)CC4)c3)ncc2Cl)c(F)cc1F` [Compound I-69, N-(5-((5-chloro-2-((1-(1-methylpiperidin-4-yl)-1H-pyrazol-4-yl)amino)pyrimidin-4-yl)amino)-2,4-difluorophenyl)acrylamide], the IC50 was less than 10 nM.

Take `C=CC(=O)Nc1ccc(F)c(Nc2nc(Nc3cnn(C)c3C)ncc2Cl)c1` [Compound I-71, N-(3-((5-chloro-2-((1,5-dimethyl-1H-pyrazol-4-yl)amino)pyrimidin-4-yl)amino)-4-fluorophenyl)acrylamide]: the concentration for half-maximal inhibition (IC50) was in the range of 10 to 100 nM.

As to `C=CC(=O)Nc1cccc(N(C)c2nc(Nc3cnn(C4CCN(C)CC4)c3)ncc2Cl)c1` [Compound I-72, N-(3-((5-chloro-2-((1-(1-methylpiperidin-4-yl)-1H-pyrazol-4-yl)amino)pyrimidin-4-yl)(methyl)amino)phenyl)acrylamide], the IC50 lay in the range of 10 to 100 nM.

In the case of `C=CC(=O)Nc1cccc(Nc2nc(Nc3cnn(C)c3)ncc2Cl)n1` [Compound I-75, N-(6-((5-chloro-2-((1-methyl-1H-pyrazol-4-yl)amino)pyrimidin-4-yl)amino)pyridin-2-yl)acrylamide], the IC50 lay within 10 to 100 nM.

With `C=CC(=O)Nc1cccc(Nc2nc(Nc3cnn(C)c3)ncc2C2CC2)c1` [Compound I-76, N-(3-((5-cyclopropyl-2-((1-methyl-1H-pyrazol-4-yl)amino)pyrimidin-4-yl)amino)phenyl)acrylamide], the IC50 lay in the range of 10 to 100 nM.

Regarding `C=CC(=O)Nc1cccc(Oc2nc(Nc3cnn(C4CCN(C)CC4)c3)ncc2Cl)c1` [Compound I-77, N-(3-((5-chloro-2-((1-(1-methylpiperidin-4-yl)-1H-pyrazol-4-yl)amino)pyrimidin-4-yl)oxy)phenyl)acrylamide], the IC50 is 10 to 100 nM.

As to `C=CC(=O)Nc1cccc(Oc2nc(Nc3cc4n(n3)CCN(C)C4)ncc2Cl)c1` [Compound I-78, N-(3-((5-chloro-2-((5-methyl-4,5,6,7-tetrahydropyrazolo[1,5-a]pyrazin-2-yl)amino)pyrimidin-4-yl)oxy)phenyl)acrylamide], the IC50 lay within 10 to 100 nM.

In the case of `C=CC(=O)Nc1cccc(Oc2nc(Nc3cnn(C(C)C)c3)ncc2Cl)c1` [Compound I-79, N-(3-((5-chloro-2-((1-isopropyl-1H-pyrazol-4-yl)amino)pyrimidin-4-yl)oxy)phenyl)acrylamide], the IC50 was in the range of 10 to 100 nM.

Turning to `C=CC(=O)Nc1cccc(Oc2nc(Nc3cnn(CCN(C)C)c3)ncc2Cl)c1` [Compound I-80, N-(3-((5-chloro-2-((1-(2-(dimethylamino)ethyl)-1H-pyrazol-4-yl)amino)pyrimidin-4-yl)oxy)phenyl)acrylamide], the 50% inhibitory concentration (IC50) was in the range of 10 to 100 nM.

For the compound `C=CC(=O)Nc1cccc(Oc2nc(Nc3cnn(CC(C)(C)O)c3)ncc2Cl)c1` [Compound I-81, N-(3-((5-chloro-2-((1-(2-hydroxy-2-methylpropyl)-1H-pyrazol-4-yl)amino)pyrimidin-4-yl)oxy)phenyl)acrylamide], the IC50 is greater than 100 nM.

Turning to `C=CC(=O)Nc1cccc(Oc2nc(Nc3cnn(CC4CC4)c3)ncc2Cl)c1` [Compound I-82, N-(3-((5-chloro-2-((1-(cyclopropylmethyl)-1H-pyrazol-4-yl)amino)pyrimidin-4-yl)oxy)phenyl)acrylamide], the IC50 was in the range of 10 to 100 nM.

In the case of `C=CC(=O)Nc1cccc(Oc2nc(Nc3c(C)nn(C4CCN(C)CC4)c3C)ncc2Cl)c1` [Compound I-83, N-(3-((5-chloro-2-((3,5-dimethyl-1-(1-methylpiperidin-4-yl)-1H-pyrazol-4-yl)amino)pyrimidin-4-yl)oxy)phenyl)acrylamide], the IC50 is greater than 100 nM.

As to `C=CC(=O)Nc1cccc(Oc2nc(Nc3c(C)nn(C)c3C)ncc2Cl)c1` [Compound I-84, N-(3-((5-chloro-2-((1,3,5-trimethyl-1H-pyrazol-4-yl)amino)pyrimidin-4-yl)oxy)phenyl)acrylamide], the IC50 is greater than 100 nM.

In the case of `C=CC(=O)Nc1cccc(Oc2nc(Nc3cnn(C)c3)ncc2Cl)c1` [Compound I-85, N-(3-((5-chloro-2-((1-methyl-1H-pyrazol-4-yl)amino)pyrimidin-4-yl)oxy)phenyl)acrylamide], the IC50 was less than 10 nM.

With `C=CC(=O)Nc1cccc(Oc2nc(Nc3cnn(CCOC)c3)ncc2Cl)c1` [Compound I-87, N-(3-((5-chloro-2-((1-(2-methoxyethyl)-1H-pyrazol-4-yl)amino)pyrimidin-4-yl)oxy)phenyl)acrylamide], the IC50 was in the range of 10 to 100 nM.

Regarding `C=CC(=O)NC1CCCC(Nc2nc(Nc3cnn(C)c3)ncc2Cl)C1` (stereo not drawn) [Compound I-92, N-(3-((5-chloro-2-((1-methyl-1H-pyrazol-4-yl)amino)pyrimidin-4-yl)amino)cyclohexyl)acrylamide], the IC50 was 10 to 100 nM.

Take `C=CC(=O)NC1CCC(Nc2nc(Nc3cnn(C)c3)ncc2Cl)C1` (stereo not drawn) [Compound I-93, N-(3-((5-chloro-2-((1-methyl-1H-pyrazol-4-yl)amino)pyrimidin-4-yl)amino)cyclopentyl)acrylamide]: the IC50 was greater than 100 nM.

On to `C=CC(=O)NC1CCC(Nc2nc(Nc3cnn(C)c3)ncc2Cl)CC1` (stereo not drawn) [Compound I-94, N-(4-((5-chloro-2-((1-methyl-1H-pyrazol-4-yl)amino)pyrimidin-4-yl)amino)cyclohexyl)acrylamide], for which the IC50 is greater than 100 nM.

Regarding `C=CC(=O)NC1CCCC(Nc2nc(Nc3cn(C)nc3Cl)ncc2Cl)C1` (stereo not drawn) [Compound I-95, N-(3-((5-chloro-2-((3-chloro-1-methyl-1H-pyrazol-4-yl)amino)pyrimidin-4-yl)amino)cyclohexyl)acrylamide], the IC50 was 10 to 100 nM.

With `C=CC(=O)NC1CCCC(Nc2nc(Nc3cc(Cl)n(C)n3)ncc2Cl)C1` (stereo not drawn) [Compound I-97, N-(3-((5-chloro-2-((5-chloro-1-methyl-1H-pyrazol-3-yl)amino)pyrimidin-4-yl)amino)cyclohexyl)acrylamide], the IC50 is greater than 100 nM.

As for `C=CC(=O)NC1CCCC(Nc2nc(Nc3cc(COC)n(C)n3)ncc2Cl)C1` (stereo not drawn) [Compound I-98, N-(3-((5-chloro-2-((5-(methoxymethyl)-1-methyl-1H-pyrazol-3-yl)amino)pyrimidin-4-yl)amino)cyclohexyl)acrylamide], the IC50 was greater than 100 nM.

`C=CC(=O)NC1CCCC(Nc2nc(Nc3cnn(CCN(C)C)c3)ncc2Cl)C1` (stereo not drawn) [Compound I-99, N-(3-((5-chloro-2-((1-(2-(dimethylamino)ethyl)-1H-pyrazol-4-yl)amino)pyrimidin-4-yl)amino)cyclohexyl)acrylamide]: the IC50 is greater than 100 nM.

For the compound `C=CC(=O)NC1CCCC(Nc2nc(Nc3cnn(C)c3)ncc2C)C1` (stereo not drawn) [Compound I-100, N-(3-((5-methyl-2-((1-methyl-1H-pyrazol-4-yl)amino)pyrimidin-4-yl)amino)cyclohexyl)acrylamide], the IC50 was greater than 100 nM.

Turning to `CN(C)C/C=C/C(=O)NC1CCCC(Nc2nc(Nc3cnn(C)c3)ncc2Cl)C1` (stereo not drawn) [Compound I-101, (E)-N-(3-((5-chloro-2-((1-methyl-1H-pyrazol-4-yl)amino)pyrimidin-4-yl)amino)cyclohexyl)-4-(dimethylamino)but-2-enamide], the IC50 was greater than 100 nM.

`C=CC(=O)NCC1CCCC(Nc2nc(Nc3cnn(C)c3)ncc2Cl)C1` (stereo not drawn) [Compound I-108, N-((3-((5-chloro-2-((1-methyl-1H-pyrazol-4-yl)amino)pyrimidin-4-yl)amino)cyclohexyl)methyl)acrylamide]: the IC50 is greater than 100 nM.

Consider `CN(C)C/C=C/C(=O)NCC1CCCC(Nc2nc(Nc3cnn(C)c3)ncc2Cl)C1` (stereo not drawn) [Compound I-109, (E)-N-((3-((5-chloro-2-((1-methyl-1H-pyrazol-4-yl)amino)pyrimidin-4-yl)amino)cyclohexyl)methyl)-4-(dimethylamino)but-2-enamide], for which the IC50 was greater than 100 nM.

Turning to `C=CC(=O)N(C)c1ccc(F)c(Nc2nc(Nc3cnn(C)c3)ncc2Cl)c1` [Compound I-110, N-(3-((5-chloro-2-((1-methyl-1H-pyrazol-4-yl)amino)pyrimidin-4-yl)amino)-4-fluorophenyl)-N-methylacrylamide], the half-maximal inhibitory concentration (IC50) was greater than 100 nM.

As to `C=CC(=O)Nc1ccc(F)c(N(C)c2nc(Nc3cnn(C)c3)ncc2Cl)c1` [Compound I-111, N-(3-((5-chloro-2-((1-methyl-1H-pyrazol-4-yl)amino)pyrimidin-4-yl)(methyl)amino)-4-fluorophenyl)acrylamide], the IC50 is less than 10 nM.

In the case of `C=CC(=O)NC1CCCC(Nc2nc(Nc3cc(C)ns3)ncc2Cl)C1` (stereo not drawn) [Compound I-114, N-(3-((5-chloro-2-((3-methylisothiazol-5-yl)amino)pyrimidin-4-yl)amino)cyclohexyl)acrylamide], the IC50 was in the range of 10 to 100 nM.

Consider `Cc1cc(Nc2ncc(Cl)c(NC3CCCC(NC(=O)/C=C/CN(C)C)C3)n2)sn1` (stereo not drawn) [Compound I-115, (E)-N-(3-((5-chloro-2-((3-methylisothiazol-5-yl)amino)pyrimidin-4-yl)amino)cyclohexyl)-4-(dimethylamino)but-2-enamide], for which the IC50 was greater than 100 nM.
